In patent US20200024662A1, “METHODS FOR TREATING OPIOID ADDICTION” (ASSUREX HEALTH, INC., priority 2016, published 2020):
Entries after “also recorded” stand apart in the source; their conditions may differ.

Legend:
[1] = system: patients treated with Methadone in the START trial; assay: PD Model 3 binning vs Methadone completion; type: in vivo, human
Experimental: (§1) For the model analyses, models were developed that sort patients into one of three categories, Green (‘G’) Yellow (‘Y’) or Red (‘R’). Patients determined to be high risk for non-completion by the model are placed into the Red Bin. Patients at intermediate risk of non-completion are placed in the Yellow Bin, and for this study, Yellow Bin patients are treated the same as patients found to be at Low Risk of non-completion, or those who are placed in the Green Bin. Thus, the Green and Yellow bins are combined for analysis.
PD Model 3: The completion percentage was calculated for each genotype. For each genotype, the raw percent difference of completion compared to the mean of completion was assigned as the genotype's PD score. The patient's PD risk was calculated by summing the total genotype risk score. Bins were assigned over the range of scores that maximized completers in Green and Yellow bins and non-completers in the Red bin.
(§2) Samples from patients treated with Methadone in the START trial described in Example 1 above were used (N=352). […] Each model was tested as described below against Sample 1, Sample 2 and/or the Full Sample.
(§3) Pearson's product moment, Chi-square with Yates correction were calculated. Diagnostic tests, odds ratios, Pearson's product moment, Chi-square with Yates correction were calculated using MEDCALC and R version 3.3.1.

[2] = system: patients treated with Methadone in the START trial; assay: PK model (predicted exposure) binning vs Methadone completion; type: in vivo, human
Experimental: as §1
The PK model represents a physiologically based pharmacokinetic algorithm that combines combinatorial pharmacogenetics with a physiological algorithm for predicting medication exposure, as described elsewhere herein. Model assignments to G Y or R were based on the therapeutic ranges provided by the literature for methadone as shown in Table 15.
as §2, §3

[3] = system: patients treated with Methadone in the START trial; assay: PD Model 2 binning vs Methadone completion; type: in vivo, human
Experimental: as §1
PD Model 2: The completion percentage was calculated for each genotype. For each gene and genotype completion percentage, the means and standard deviations were calculated. For each genotype that was one standard deviation away from the mean, towards higher completion, a score of 1 was given. For each genotype that was one standard deviation away from the mean, towards lower completion, a score of −1 was given. For genotypes that were not one standard deviation away, the raw percent difference from the mean was observed as the score. Each score was then normalized across each gene using a scale from 0.2 to 1. Each value was normalized across all genes by converting the percentages on a plus/minus scale of 0, 0.2, 0.5, and 1 according to Table 17. Values that were greater than or equal to 1 SD away were automatically scored as a 1 or −1. The conversion of genotypes to scores was as shown in Tabl 18. The patient's PD risk was calculated by summing the total genotype risk score. Bins were assigned over the range of scores that maximized completers in Green and Yellow bins and non-completers in the Red bin.
as §2, §3

[4] = system: patients treated with Methadone in the START trial; assay: PK/PD Model 3 binning vs Methadone completion; type: in vivo, human
Experimental: as §1
Three separate PK/PD Models were generated by combining the PK model with each of the three PD models separately as follows. For each PKPD model, the corresponding PD risk score was added to the raw PK score (bin). A total PD risk score that was negative, represents a reduction of the baseline PK score, while a total PD risk score that was positive represented an increase in the baseline PK score.
as §2, §3

START trial patients = assay: Single-gene logistic regression of non-completion of 24-week opioid agonist replacement therapy (START trial)
[5] = PD Model 3, Full Sample, Green bin, Risk Score −2.3 to −0.3
[6] = PD Model 3, Full Sample, Red bin, Risk Score 1+
[7] = PD Model 3, Full Sample, Yellow bin, Risk Score −0.2 to 0.9
[8] = PD Model 3, Sample 1, Green bin, Risk Score −1.8 to −0.3
[9] = PD Model 3, Sample 1, Red bin, Risk Score 1 to 2.1
[10] = PD Model 3, Sample 1, Yellow bin, Risk Score −0.2 to 0.9
[11] = PD Model 3, Sample 2, Green bin, Risk Score −2.1 to −0.7
[12] = PD Model 3, Sample 2, Red bin, Risk Score 0.2 to 2
[13] = PD Model 3, Sample 2, Yellow bin, Risk Score −0.6 to 0.1
[14] = PD Model 2, Full Sample, Green bin, Risk Score −4.2 to −0.2
[15] = PD Model 2, Full Sample, Red bin, Risk Score 1.3+
[16] = PD Model 2, Full Sample, Yellow bin, Risk Score 0.1 to 1
[17] = PD Model 2, Sample 1, Green bin, Risk Score −3.3 to −0.2
[18] = PD Model 2, Sample 1, Red bin, Risk Score 1.3 to 3.7
[19] = PD Model 2, Sample 1, Yellow bin, Risk Score 0.2 to 1
[20] = PD Model 2, Sample 2, Green bin, Risk Score −3.2 to −1
[21] = PD Model 2, Sample 2, Red bin, Risk Score 0.5 to 2.7
[22] = PD Model 2, Sample 2, Yellow bin, Risk Score −0.9 to 0.3
[23] = PK/PD Model 3, Full Sample, Green bin, Risk Score −1.3 to 1.3
[24] = PK/PD Model 3, Full Sample, Red bin, Risk Score 2.4+
[25] = PK/PD Model 3, Full Sample, Yellow bin, Risk Score 1.4 to 2.3
[26] = PK/PD Model 3, Sample 1, Green bin, Risk Score −0.8 to 1.3
[27] = PK/PD Model 3, Sample 1, Red bin, Risk Score 2.4 to 5.1
[28] = PK/PD Model 3, Sample 1, Yellow bin, Risk Score 1.4 to 2.3
[29] = PK/PD Model 3, Sample 2, Green bin, Risk Score −1.1 to 0.8
[30] = PK/PD Model 3, Sample 2, Red bin, Risk Score 2.2 to 4.3
[31] = PK/PD Model 3, Sample 2, Yellow bin, Risk Score 0.9 to 2.1
[32] = Table 4.3, 24-week treatment, logistic regression with dose category

CCC(=O)C(CC(C)N(C)C)(c1ccccc1)c1ccccc1 (stereo not shown) [Methadone, methadone]
Completers [1, 5]: 137 | Non Completers [1, 5]: 9 | Completers [1, 6]: 39 | Non Completers [1, 6]: 10 | Completers [1, 7]: 131 | Non Completers [1, 7]: 26 | Completers [1, 8]: 74 | Non Completers [1, 8]: 2 | Completers [1, 9]: 20 | Non Completers [1, 9]: 7 | Completers [1, 10]: 62 | Non Completers [1, 10]: 11 | Completers [1, 11]: 77 | Non Completers [1, 11]: 2 | Completers [1, 12]: 29 | Non Completers [1, 12]: 9 | Completers [1, 13]: 53 | Non Completers [1, 13]: 6 | Completers ([2]; Full Sample, Green bin): 181 | Non Completers ([2]; Full Sample, Green bin): 11 | Completers ([2]; Full Sample, Red bin): 33 | Non Completers ([2]; Full Sample, Red bin): 22 | Completers ([2]; Full Sample, Yellow bin): 93 | Non Completers ([2]; Full Sample, Yellow bin): 12 | Completers ([2]; Sample 1, Green bin): 91 | Non Completers ([2]; Sample 1, Green bin): 6 | Completers ([2]; Sample 1, Red bin): 12 | Non Completers ([2]; Sample 1, Red bin): 8 | Completers ([2]; Sample 1, Yellow bin): 53 | Non Completers ([2]; Sample 1, Yellow bin): 6 | Completers ([2]; Sample 2, Green bin): 94 | Non Completers ([2]; Sample 2, Green bin): 7 | Completers ([2]; Sample 2, Red bin): 13 | Non Completers ([2]; Sample 2, Red bin): 6 | Completers ([2]; Sample 2, Yellow bin): 52 | Non Completers ([2]; Sample 2, Yellow bin): 4 | Completers [3, 14]: 101 | Non Completers [3, 14]: 7 | Completers [3, 15]: 86 | Non Completers [3, 15]: 20 | Completers [3, 16]: 120 | Non Completers [3, 16]: 18 | Completers [3, 17]: 58 | Non Completers [3, 17]: 3 | Completers [3, 18]: 43 | Non Completers [3, 18]: 12 | Completers [3, 19]: 55 | Non Completers [3, 19]: 5 | Completers [3, 20]: 70 | Non Completers [3, 20]: 2 | Completers [3, 21]: 32 | Non Completers [3, 21]: 9 | Completers [3, 22]: 57 | Non Completers [3, 22]: 6 | Completers [4, 23]: 150 | Non Completers [4, 23]: 7 | Completers [4, 24]: 64 | Non Completers [4, 24]: 28 | Completers [4, 25]: 93 | Non Completers [4, 25]: 10 | Completers [4, 26]: 80 | Non Completers [4, 26]: 2 | Completers [4, 27]: 26 | Non Completers [4, 27]: 12 | Completers [4, 28]: 50 | Non Completers [4, 28]: 6 | Completers [4, 29]: 77 | Non Completers [4, 29]: 2 | Completers [4, 30]: 24 | Non Completers [4, 30]: 10 | Completers [4, 31]: 58 | Non Completers [4, 31]: 5 | OR (95% CI) of non-completion, COMT VAL/MET vs MET/MET (START trial patients; [32]): 2.76 (0.99-7.68) | OR (95% CI) of non-completion, COMT VAL/VAL vs MET/MET (START trial patients; [32]): 3.16 (1.07-9.31) | OR (95% CI) of non-completion, COMT VAL/VAL vs VAL/MET (START trial patients; [32]): 1.14 (0.56-2.34) | OR (95% CI) of non-completion, CYP3A4 EM vs IM + PM (START trial patients; [32]): 1.66 (0.48-5.77) | OR (95% CI) of non-completion, HTR2A Intermediate vs Normal (START trial patients; [32]): 0.58 (0.25-1.36) | OR (95% CI) of non-completion, HTR2A Intermediate vs Reduced (START trial patients; [32]): 0.73 (0.35-1.52) | OR (95% CI) of non-completion, HTR2A Normal vs Reduced (START trial patients; [32]): 1.26 (0.51-3.09) | OR (95% CI) of non-completion, SLC6A4 L/L vs S/S (START trial patients; [32]): 0.54 (0.23-1.23) | OR (95% CI) of non-completion, SLC6A4 L/S vs L/L (START trial patients; [32]): 0.77 (0.36-1.65) | OR (95% CI) of non-completion, SLC6A4 L/S vs S/S (START trial patients; [32]): 0.41 (0.19-0.91) | times more likely not to complete the 24-week treatment, SLC6A4 reduced phenotype compared to intermediate phenotype (START trial patients; […]): 2.41 times | effect of dose level (Dose-bin-category covariate) on non-completion (START trial patients; significance at p-value ≤0.05 in the single-gene logistic regression models): significant for all eleven genes; also recorded: played an important role | times more likely not to complete the 24-week treatment, COMT high phenotype compared to reduced phenotype (START trial patients; text statement of odds ratio): 3.16 times
